From patent publication US10240133B2, “ERK-derived peptides and uses thereof” (Yeda Research and Development Co. Ltd., priority 2013, dated 2019)

What was measured:
Test in all cases: Tumor xenograft growth
Format in all cases: in vivo, CD-1 nude mice
Conditions in all cases: i.v. tail vein, 3 times a week
HCT-116 xenograft = system: HCT-116 xenograft
Method: (§1) FIGS. 6A-6B illustrate that the EPE peptide prevents the growth of human tumor xenografts. CD-1 nude mice were inoculated with MDA-MB-231, LOXIMVI and HCT-116 cells, and SKID mice were inoculated with A2352 cells. Upon tumors establishment, the mice were treated intravenously with the DMSO as well as EPE or Scr peptides in the indicated doses, 3 times a week. The results are averages of 5 mice in each experimental group. The X, Y, Z dimensions of the tumors were measured with a caliper, and the volume was calculated accordingly. The significance of all experiments was at least P<0.001. (B) The EPE peptide prevents tumor recurrence on melanoma xenograft. SCID mice were inoculated with A2352 cells. Upon establishment of tumors mice were treated intravenously with 15 mg/kg EPE peptide (n=7) or intraperitonealy with 15 mg/kg PLX4032 (n=5), at the indicated dose 3 times a week. Tumor size was recorded at the same time using a caliper. Following 3 weeks of treatment, mice were kept for further evaluation monitoring for any tumor recurrence of the effective treated melanoma xenografts. Experiment was concluded 110 days post inoculation (11 weeks after the last treatment) and the overall state of the animals was evaluated. sac=sacrificed, recur=recurrence, met=metastasis.
(§2) Tumor dimensions were measured with a digital sliding caliper.

MDA-MB-231 xenograft = system: MDA-MB-231 xenograft
Method: as §1, §2

LOXIMVI xenograft = system: LOXIMVI xenograft
Method: as §1, §2

Sequence: GQLNHILGILGEPEQED (Synthetic peptide (EPE)) [EPE peptide, NTS-derived peptide with phosphomimetic EPE motif]
- growth of tumor xenograft (HCT-116 xenograft): to some extent
- growth of tumor xenograft (MDA-MB-231 xenograft): dose dependent inhibition of the growth
- growth of tumor xenograft (LOXIMVI xenograft): dose dependent inhibition of the growth
